Measured values as given in ChEMBL document CHEMBL1201862, “PubChem BioAssay data set” (2004).
Activity calls are given as the source filed them.

Experiments:
[1] = general mammalian cell viability loss – activator set, cherry-pick, cytotoxicity control for miR-122 modulator project, dose response (AID 720690); type: functional, cell-based;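 further: HEK293T human cells scored for general mammalian cytotoxicity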
[2] = general mammalian cell viability loss – inhibitor set, cherry-pick, set 2, cytotoxicity control for miR-122 modulator project, dose response (AID 720697); type: functional, cell-based
[3] = activation of miR-122 Renilla sensor silencing – cell-based, Huh7 psiCHECK-miR122, Renilla luciferase, cherry-picked, dose response (AID 651956); type: functional;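 further: huh7 hepatoma cells stably carrying a psiCHECK-2 miR-122 sensor plasmid; renilla luciferase signal reporting endogenous miR-122 activity after 48 h compound exposure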
[4] = molecular target: 72 kDa type IV collagenase (Homo sapiens, UniProt P08253); assay: Dose Response validation of uHTS RPN11 inhibitor hits using a MMP-2 Fluorescence assay.; type: functional
Prothrombin = Prothrombin (Bos taurus, UniProt P00735); assay: thrombin protease inhibitors – biochemical, fluorescence polarization, uHTS hits, dose response (AID 602369); type: functional
[5] = molecular target: T1, Tyrosine-protein phosphatase non-receptor type 22 (Homo sapiens, UniProt Q9Y2R2); assay: PTPN22 enzyme inhibitors – biochemical, fluorescence, LYP catalytic domain, selectivity assay for LMPTP inhibitor project, dose response (AID 652006); type: functional; conditions: read-out: IC50_Mean
T1 sequence (Q9Y2R2 whole entry): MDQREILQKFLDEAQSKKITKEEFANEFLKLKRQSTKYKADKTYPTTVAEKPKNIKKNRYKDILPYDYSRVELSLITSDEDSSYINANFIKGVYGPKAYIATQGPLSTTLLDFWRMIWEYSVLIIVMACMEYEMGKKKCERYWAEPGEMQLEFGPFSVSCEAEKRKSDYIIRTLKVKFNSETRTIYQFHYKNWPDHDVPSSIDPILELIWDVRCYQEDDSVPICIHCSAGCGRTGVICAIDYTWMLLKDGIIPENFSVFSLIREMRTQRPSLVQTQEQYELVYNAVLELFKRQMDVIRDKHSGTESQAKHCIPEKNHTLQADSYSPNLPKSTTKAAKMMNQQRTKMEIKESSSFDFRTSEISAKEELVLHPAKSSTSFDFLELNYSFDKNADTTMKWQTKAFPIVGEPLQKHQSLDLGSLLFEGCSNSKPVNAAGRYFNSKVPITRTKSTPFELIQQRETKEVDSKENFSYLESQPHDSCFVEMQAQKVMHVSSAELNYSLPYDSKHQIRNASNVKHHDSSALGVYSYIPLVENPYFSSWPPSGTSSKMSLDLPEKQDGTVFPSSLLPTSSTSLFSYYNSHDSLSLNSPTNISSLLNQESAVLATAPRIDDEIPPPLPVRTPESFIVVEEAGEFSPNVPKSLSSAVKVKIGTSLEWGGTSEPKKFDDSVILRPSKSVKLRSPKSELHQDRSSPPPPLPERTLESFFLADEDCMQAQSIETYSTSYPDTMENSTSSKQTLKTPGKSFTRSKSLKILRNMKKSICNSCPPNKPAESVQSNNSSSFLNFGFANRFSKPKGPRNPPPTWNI

[6] = molecular target: T2, Low molecular weight phosphotyrosine protein phosphatase (Homo sapiens, UniProt P24666); type: functional; conditions: read-out: IC50_Mean
T2 sequence (P24666 whole entry): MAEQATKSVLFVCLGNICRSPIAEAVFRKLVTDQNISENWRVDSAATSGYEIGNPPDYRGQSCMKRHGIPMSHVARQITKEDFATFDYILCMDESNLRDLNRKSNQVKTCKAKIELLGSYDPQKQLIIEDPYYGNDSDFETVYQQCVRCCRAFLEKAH

[7] = molecular target: T2, Low molecular weight phosphotyrosine protein phosphatase; type: functional; conditions: read-out: IC50_Mean; remark: listed apart in the source
[8] = molecular target: T3, Small ubiquitin-related modifier 1 (Homo sapiens, UniProt P63165); assay: SUMO1 protein-protein binding blockers, potency – biochemical, FRET, dose response (AID 624383); type: functional; conditions: read-out: IC50_Mean
[9] = molecular target: T3, Small ubiquitin-related modifier 1; assay: SUMO1 protein interaction blockers, potency – biochemical, fluorescence polarization, uHTS hits, dose response (AID 624382); type: functional; conditions: read-out: IC50_Mean
[10] = molecular target: 26S proteasome non-ATPase regulatory subunit 14 (Homo sapiens, UniProt O00487); assay: inhibition of proteasome subunit RPN11 – biochemical, fluorescence polarization, uHTS hits, confirmation (AID 602368); type: functional
[11] = mouse fibroblast viability loss – cell-based, cherry-pick samples, set 2, cytotoxicity control for T. cruzi growth inhibitor project, dose response (AID 651817); type: functional; conditions: NIH3T3
[12] = intracellular Trypanosoma cruzi inhibitors in host cells – cell-based, plate reader, cherry-pick samples, set 3, dose response (AID 651818); type: functional;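 further: compounds incubated with infected cells for about four days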
[13] = molecular target: ADP-ribosylation factor GTPase-activating protein 1 (Rattus norvegicus, UniProt Q62848); assay: Fluorescence polarization-based biochemical high throughput dose response screening assay to identify inhibitors of ADP-ribosylation factor GTPase activating protein 1 (ARFGAP1).; type: functional
[14] = Trypanosoma cruzi growth suppression in host cells – NIH3T3 host cells, beta-gal luminescence, confirmation (AID 2044); type: functional, cell-based;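 further: intracellular parasites grown in NIH/3T3 mouse fibroblasts as host cells; luminescent beta-galactosidase reporter signal from transgenic T. cruzi replicating inside host cells; inhibitors lower the luminescence signal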
[15] = NIH3T3 cell viability loss – ATP luminescence, mouse fibroblasts, counter-screen, dose response (AID 2010); type: functional, cell-based;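 further: cells exposed to compound for about 90 hours before reading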

T3 sequence (P63165 whole entry): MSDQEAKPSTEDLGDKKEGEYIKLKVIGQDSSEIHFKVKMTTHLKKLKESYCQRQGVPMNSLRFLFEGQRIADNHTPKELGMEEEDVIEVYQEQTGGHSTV
Sequence of ADP-ribosylation factor GTPase-activating protein 1 (Q62848 whole entry): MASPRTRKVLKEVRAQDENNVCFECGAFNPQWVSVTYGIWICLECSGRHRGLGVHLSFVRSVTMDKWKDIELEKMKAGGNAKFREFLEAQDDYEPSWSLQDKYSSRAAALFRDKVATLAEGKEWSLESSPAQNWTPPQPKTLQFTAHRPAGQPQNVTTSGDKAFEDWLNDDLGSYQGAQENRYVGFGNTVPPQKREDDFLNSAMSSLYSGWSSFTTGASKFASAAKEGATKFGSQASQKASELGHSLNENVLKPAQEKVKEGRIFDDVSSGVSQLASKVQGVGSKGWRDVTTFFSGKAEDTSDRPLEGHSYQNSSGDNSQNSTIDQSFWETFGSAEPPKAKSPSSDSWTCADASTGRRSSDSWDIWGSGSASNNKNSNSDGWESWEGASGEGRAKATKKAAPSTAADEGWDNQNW
Sequence of 72 kDa type IV collagenase (P08253 whole entry): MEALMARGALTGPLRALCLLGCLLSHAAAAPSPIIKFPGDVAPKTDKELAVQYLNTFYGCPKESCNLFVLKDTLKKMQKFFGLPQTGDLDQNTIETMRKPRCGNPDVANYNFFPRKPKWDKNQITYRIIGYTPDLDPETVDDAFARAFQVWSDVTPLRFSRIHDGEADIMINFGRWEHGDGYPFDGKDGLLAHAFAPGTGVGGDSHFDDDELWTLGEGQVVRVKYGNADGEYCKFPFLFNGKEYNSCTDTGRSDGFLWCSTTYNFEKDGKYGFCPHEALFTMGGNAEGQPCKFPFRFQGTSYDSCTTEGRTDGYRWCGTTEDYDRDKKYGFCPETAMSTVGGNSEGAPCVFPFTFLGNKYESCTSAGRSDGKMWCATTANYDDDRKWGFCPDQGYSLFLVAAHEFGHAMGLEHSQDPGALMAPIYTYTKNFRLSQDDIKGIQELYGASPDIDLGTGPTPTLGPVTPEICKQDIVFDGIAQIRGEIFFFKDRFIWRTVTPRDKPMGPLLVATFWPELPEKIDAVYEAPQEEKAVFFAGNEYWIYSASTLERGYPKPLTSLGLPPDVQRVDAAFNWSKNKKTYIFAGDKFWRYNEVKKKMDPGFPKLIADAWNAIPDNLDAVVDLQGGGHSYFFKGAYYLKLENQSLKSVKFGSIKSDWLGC
Sequence of 26S proteasome non-ATPase regulatory subunit 14 (O00487 whole entry): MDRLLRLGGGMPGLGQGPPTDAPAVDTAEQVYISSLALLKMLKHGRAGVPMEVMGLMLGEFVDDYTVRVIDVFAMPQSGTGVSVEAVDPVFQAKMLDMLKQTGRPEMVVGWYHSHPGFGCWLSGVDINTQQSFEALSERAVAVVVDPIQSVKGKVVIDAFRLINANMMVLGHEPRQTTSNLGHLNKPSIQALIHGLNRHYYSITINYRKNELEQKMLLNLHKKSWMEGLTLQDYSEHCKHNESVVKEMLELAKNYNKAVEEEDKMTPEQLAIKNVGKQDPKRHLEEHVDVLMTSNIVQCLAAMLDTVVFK

## NC(Cc1ccc(C(F)(F)F)cc1)c1csc(Nc2nncc3ccccc23)n1 (stereo unspecified)
[1]
  AC50: 8.02 µM (active)
[2]
  AC50: 2.52 µM (active)
[3]
  AC50: 19.4 µM (active)

## C/C(=N\NC(=O)c1ccc(OC2OCCOC2Oc2ccc(C(=O)N/N=C(\C)c3ccncc3)cc2)cc1)c1ccncc1 (stereo unspecified)
[4]
  IC50: > 100 µM (inactive)
Prothrombin
  IC50: 41 µM (active)
[5]
  IC50: 13.6 µM (active)
[6]
  IC50: > 80 µM (inactive)
[7]
  IC50: 13.2 µM (active)
[8]
  IC50: 8.52 µM (active)
[9]
  IC50: > 66.6 µM (inactive)
[10]
  IC50: 9.62 µM (active)

## C[C@@H]1CN([C@H](C)CO)C(=O)c2cccc(NC(=O)Nc3ccc(C(F)(F)F)cc3)c2O[C@H]1CN(C)Cc1ccc(Cl)c(Cl)c1
[11]
  AC50: 15.7 µM (active)
[12]
  AC50: 1.28 µM (active)

## N#CCCn1cc(/C=N/NC(N)=S)c(-c2ccc(-c3ccccc3)cc2)n1
[13]
  IC50: 128 µM (inactive)
[14]
  EC50: 0.924 µM (active)
[15]
  EC50: 9.69 µM (active)
